# pEC50: −log10 of the molar value.
# Experiments:
# [1] = molecular target: T1, Gamma-aminobutyric acid receptor subunit alpha-6/beta-3/gamma-2 (Rattus norvegicus, UniProt P18508+P30191+P63079); experiment: (§1) Positive allosteric modulation of rat recombinant GABAA alpha6beta3alpha6-gamma2beta3 receptor expressed in Xenopus laevis oocytes assessed as increase in GABA-induced current amplitude at -80 mV holding potential in presence of GABA EC1 to 1.5 by two-electrode voltage-clamp assay; assay type: cell-based, Oocyte
# [2] = molecular target: T2, Gamma-aminobutyric acid receptor subunit alpha-6/beta-3/gamma-2 (Rattus norvegicus) (UniProt P18508+P30191+P63079); experiment: Positive allosteric modulation of rat recombinant GABAA alpha6beta3alpha6-gamma2beta3 receptor expressed in Xenopus laevis oocytes assessed as maximal current at -80 mV holding potential in presence of GABA EC1 to 1.5 by two-electrode voltage-clamp assay relative to control; assay type: cell-based; settings: Oocyte, filed as positive allosteric modulator
# [3] = molecular target: T2, Gamma-aminobutyric acid receptor subunit alpha-6/beta-3/gamma-2 (Rattus norvegicus); experiment: Positive allosteric modulation of rat recombinant GABAA alpha6beta3alpha6-gamma2beta3 receptor expressed in Xenopus laevis oocytes assessed as maximal efficacy at -80 mV holding potential at 1 nM in presence of GABA EC1 to 1.5 by two-electrode voltage-clamp assay; assay type: cell-based; settings: Oocyte
# [4] = molecular target: T2, Gamma-aminobutyric acid receptor subunit alpha-6/beta-3/gamma-2 (Rattus norvegicus); experiment: Positive allosteric modulation of rat recombinant GABAA alpha6beta3alpha6-gamma2beta3 receptor expressed in Xenopus laevis oocytes assessed as maximal efficacy at -80 mV holding potential at 3 nM in presence of GABA EC1 to 1.5 by two-electrode voltage-clamp assay; assay type: cell-based; settings: Oocyte
# [5] = molecular target: T2, Gamma-aminobutyric acid receptor subunit alpha-6/beta-3/gamma-2 (Rattus norvegicus); experiment: Positive allosteric modulation of rat recombinant GABAA alpha6beta3alpha6-gamma2beta3 receptor expressed in Xenopus laevis oocytes assessed as maximal efficacy at -80 mV holding potential at 10 nM in presence of GABA EC1 to 1.5 by two-electrode voltage-clamp assay; assay type: cell-based; settings: Oocyte
# [6] = molecular target: T2, Gamma-aminobutyric acid receptor subunit alpha-6/beta-3/gamma-2 (Rattus norvegicus); experiment: Positive allosteric modulation of rat recombinant GABAA alpha6beta3alpha6-gamma2beta3 receptor expressed in Xenopus laevis oocytes assessed as maximal efficacy at -80 mV holding potential at 30 nM in presence of GABA EC1 to 1.5 by two-electrode voltage-clamp assay; assay type: cell-based; settings: Oocyte
# [7] = molecular target: T2, Gamma-aminobutyric acid receptor subunit alpha-6/beta-3/gamma-2 (Rattus norvegicus); experiment: Positive allosteric modulation of rat recombinant GABAA alpha6beta3alpha6-gamma2beta3 receptor expressed in Xenopus laevis oocytes assessed as maximal efficacy at -80 mV holding potential at 100 nM in presence of GABA EC1 to 1.5 by two-electrode voltage-clamp assay; assay type: cell-based; settings: Oocyte, filed as positive allosteric modulator
# [8] = molecular target: T2, Gamma-aminobutyric acid receptor subunit alpha-6/beta-3/gamma-2 (Rattus norvegicus); experiment: Positive allosteric modulation of rat recombinant GABAA alpha6beta3alpha6-gamma2beta3 receptor expressed in Xenopus laevis oocytes assessed as maximal efficacy at -80 mV holding potential at 300 nM in presence of GABA EC1 to 1.5 by two-electrode voltage-clamp assay; assay type: cell-based; settings: Oocyte, filed as positive allosteric modulator
# [9] = molecular target: T2, Gamma-aminobutyric acid receptor subunit alpha-6/beta-3/gamma-2 (Rattus norvegicus); experiment: Positive allosteric modulation of rat recombinant GABAA alpha6beta3alpha6-gamma2beta3 receptor expressed in Xenopus laevis oocytes assessed as maximal efficacy at -80 mV holding potential at 1 uM in presence of GABA EC1 to 1.5 by two-electrode voltage-clamp assay; assay type: cell-based; settings: Oocyte, filed as positive allosteric modulator
# [10] = molecular target: T2, Gamma-aminobutyric acid receptor subunit alpha-6/beta-3/gamma-2 (Rattus norvegicus); experiment: Positive allosteric modulation of rat recombinant GABAA alpha6beta3alpha6-gamma2beta3 receptor expressed in Xenopus laevis oocytes assessed as maximal efficacy at -80 mV holding potential at 3 uM in presence of GABA EC1 to 1.5 by two-electrode voltage-clamp assay; assay type: cell-based; settings: Oocyte, filed as positive allosteric modulator
# [11] = molecular target: T2, Gamma-aminobutyric acid receptor subunit alpha-6/beta-3/gamma-2 (Rattus norvegicus); experiment: Positive allosteric modulation of rat recombinant GABAA alpha6beta3alpha6-gamma2beta3 receptor expressed in Xenopus laevis oocytes assessed as maximal efficacy at -80 mV holding potential at 10 uM in presence of GABA EC1 to 1.5 by two-electrode voltage-clamp assay; assay type: cell-based; settings: Oocyte, filed as positive allosteric modulator
# [12] = molecular target: T2, Gamma-aminobutyric acid receptor subunit alpha-6/beta-3/gamma-2 (Rattus norvegicus); experiment: Positive allosteric modulation of rat recombinant GABAA alpha6beta3alpha6-gamma2beta3 receptor expressed in Xenopus laevis oocytes assessed as maximal efficacy at -80 mV holding potential at 30 uM in presence of GABA EC1 to 1.5 by two-electrode voltage-clamp assay; assay type: cell-based; settings: Oocyte, filed as positive allosteric modulator
# [13] = molecular target: T1, Gamma-aminobutyric acid receptor subunit alpha-6/beta-3/gamma-2; experiment: as §1, with “potential under more potent phase” for “potential”; assay type: cell-based, Oocyte
# [14] = molecular target: T1, Gamma-aminobutyric acid receptor subunit alpha-6/beta-3/gamma-2; experiment: as §1, with “potential under less potent phase” for “potential”; assay type: cell-based, Oocyte
# [15] = molecular target: T2, Gamma-aminobutyric acid receptor subunit alpha-6/beta-3/gamma-2 (Rattus norvegicus); experiment: Positive allosteric modulation of rat recombinant GABAA alpha6beta3alpha6-gamma2beta3 receptor expressed in Xenopus laevis oocytes assessed as maximal current at -80 mV holding potential under more potent phase in presence of GABA EC1 to 1.5 by two-electrode voltage-clamp assay relative to control; assay type: cell-based; settings: Oocyte, filed as positive allosteric modulator
# [16] = molecular target: T2, Gamma-aminobutyric acid receptor subunit alpha-6/beta-3/gamma-2 (Rattus norvegicus); experiment: Positive allosteric modulation of rat recombinant GABAA alpha6beta3alpha6-gamma2beta3 receptor expressed in Xenopus laevis oocytes assessed as maximal current under less potent phase in presence of GABA EC1 to 1.5 by two-electrode voltage-clamp assay relative to control; assay type: cell-based; settings: Oocyte, filed as positive allosteric modulator
# [17] = molecular target: T3, Gamma-aminobutyric acid receptor subunit alpha-1/beta-3/gamma-2 (Rattus norvegicus) (UniProt P18508+P62813+P63079); experiment: Positive allosteric modulation of rat recombinant GABAA alpha1beta3alpha1-gamma2beta3 receptor expressed in Xenopus laevis oocytes assessed as maximal efficacy at -80 mV holding potential at 30 nM in presence of GABA EC1 to 1.5 by two-electrode voltage-clamp assay; assay type: cell-based; settings: Oocyte
# [18] = molecular target: T3, Gamma-aminobutyric acid receptor subunit alpha-1/beta-3/gamma-2 (Rattus norvegicus); experiment: Positive allosteric modulation of rat recombinant GABAA alpha1beta3alpha1-gamma2beta3 receptor expressed in Xenopus laevis oocytes assessed as maximal efficacy at -80 mV holding potential at 100 nM in presence of GABA EC1 to 1.5 by two-electrode voltage-clamp assay; assay type: cell-based; settings: Oocyte
# [19] = molecular target: T3, Gamma-aminobutyric acid receptor subunit alpha-1/beta-3/gamma-2 (Rattus norvegicus); experiment: Positive allosteric modulation of rat recombinant GABAA alpha1beta3alpha1-gamma2beta3 receptor expressed in Xenopus laevis oocytes assessed as maximal efficacy at -80 mV holding potential at 300 nM in presence of GABA EC1 to 1.5 by two-electrode voltage-clamp assay; assay type: cell-based; settings: Oocyte
# [20] = molecular target: T3, Gamma-aminobutyric acid receptor subunit alpha-1/beta-3/gamma-2 (Rattus norvegicus); experiment: Positive allosteric modulation of rat recombinant GABAA alpha1beta3alpha1-gamma2beta3 receptor expressed in Xenopus laevis oocytes assessed as maximal efficacy at -80 mV holding potential at 30 uM in presence of GABA EC1 to 1.5 by two-electrode voltage-clamp assay; assay type: cell-based; settings: Oocyte, filed as positive allosteric modulator
# [21] = molecular target: T4, Gamma-aminobutyric acid receptor subunit alpha-1/alpha-6/beta-3/gamma-2 (Rattus norvegicus) (UniProt P18508+P30191+P62813+P63079); experiment: Positive allosteric modulation of rat recombinant GABAA alpha6beta3alpha1-gamma2beta3 receptor expressed in Xenopus laevis oocytes assessed as maximal efficacy at -80 mV holding potential at 30 nM in presence of GABA EC1 to 1.5 by two-electrode voltage-clamp assay; assay type: cell-based; settings: Oocyte
# [22] = molecular target: T4, Gamma-aminobutyric acid receptor subunit alpha-1/alpha-6/beta-3/gamma-2 (Rattus norvegicus); experiment: Positive allosteric modulation of rat recombinant GABAA alpha6beta3alpha1-gamma2beta3 receptor expressed in Xenopus laevis oocytes assessed as maximal efficacy at -80 mV holding potential at 100 nM in presence of GABA EC1 to 1.5 by two-electrode voltage-clamp assay; assay type: cell-based; settings: Oocyte
# [23] = molecular target: T4, Gamma-aminobutyric acid receptor subunit alpha-1/alpha-6/beta-3/gamma-2 (Rattus norvegicus); experiment: Positive allosteric modulation of rat recombinant GABAA alpha6beta3alpha1-gamma2beta3 receptor expressed in Xenopus laevis oocytes assessed as maximal efficacy at -80 mV holding potential at 300 nM in presence of GABA EC1 to 1.5 by two-electrode voltage-clamp assay; assay type: cell-based; settings: Oocyte
# [24] = molecular target: T4, Gamma-aminobutyric acid receptor subunit alpha-1/alpha-6/beta-3/gamma-2 (Rattus norvegicus); experiment: Positive allosteric modulation of rat recombinant GABAA alpha6beta3alpha1-gamma2beta3 receptor expressed in Xenopus laevis oocytes assessed as maximal efficacy at -80 mV holding potential at 30 uM in presence of GABA EC1 to 1.5 by two-electrode voltage-clamp assay; assay type: cell-based; settings: Oocyte, filed as positive allosteric modulator
# [25] = filed as positive allosteric modulator
# T1 sequence (P18508 whole entry): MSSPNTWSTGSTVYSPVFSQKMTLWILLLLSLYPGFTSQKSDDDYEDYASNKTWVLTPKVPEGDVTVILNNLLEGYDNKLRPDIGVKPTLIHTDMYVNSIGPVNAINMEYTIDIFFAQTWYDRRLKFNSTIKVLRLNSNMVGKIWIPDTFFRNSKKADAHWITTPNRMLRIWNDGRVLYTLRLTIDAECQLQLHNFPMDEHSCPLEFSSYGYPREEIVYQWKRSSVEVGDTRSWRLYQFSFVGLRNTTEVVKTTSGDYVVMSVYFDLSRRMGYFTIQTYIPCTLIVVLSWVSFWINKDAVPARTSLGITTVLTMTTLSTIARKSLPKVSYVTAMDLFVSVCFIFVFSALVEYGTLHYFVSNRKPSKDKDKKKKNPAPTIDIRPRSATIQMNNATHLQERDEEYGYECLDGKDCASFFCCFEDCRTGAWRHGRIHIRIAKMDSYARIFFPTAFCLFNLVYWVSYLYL
# T1 sequence (P30191 whole entry): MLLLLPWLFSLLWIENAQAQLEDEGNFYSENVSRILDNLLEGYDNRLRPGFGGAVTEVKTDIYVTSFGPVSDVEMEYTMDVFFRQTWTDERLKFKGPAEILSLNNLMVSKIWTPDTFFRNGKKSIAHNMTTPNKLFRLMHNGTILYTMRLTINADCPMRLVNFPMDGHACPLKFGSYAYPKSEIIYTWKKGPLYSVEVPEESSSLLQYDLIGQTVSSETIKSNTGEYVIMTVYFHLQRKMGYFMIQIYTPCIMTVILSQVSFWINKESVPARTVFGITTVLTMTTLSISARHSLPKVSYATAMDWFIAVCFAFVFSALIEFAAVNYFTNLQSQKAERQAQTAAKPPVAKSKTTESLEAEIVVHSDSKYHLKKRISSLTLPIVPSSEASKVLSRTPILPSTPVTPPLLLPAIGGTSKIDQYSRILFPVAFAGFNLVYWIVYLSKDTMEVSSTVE
# T1 sequence (P63079 whole entry): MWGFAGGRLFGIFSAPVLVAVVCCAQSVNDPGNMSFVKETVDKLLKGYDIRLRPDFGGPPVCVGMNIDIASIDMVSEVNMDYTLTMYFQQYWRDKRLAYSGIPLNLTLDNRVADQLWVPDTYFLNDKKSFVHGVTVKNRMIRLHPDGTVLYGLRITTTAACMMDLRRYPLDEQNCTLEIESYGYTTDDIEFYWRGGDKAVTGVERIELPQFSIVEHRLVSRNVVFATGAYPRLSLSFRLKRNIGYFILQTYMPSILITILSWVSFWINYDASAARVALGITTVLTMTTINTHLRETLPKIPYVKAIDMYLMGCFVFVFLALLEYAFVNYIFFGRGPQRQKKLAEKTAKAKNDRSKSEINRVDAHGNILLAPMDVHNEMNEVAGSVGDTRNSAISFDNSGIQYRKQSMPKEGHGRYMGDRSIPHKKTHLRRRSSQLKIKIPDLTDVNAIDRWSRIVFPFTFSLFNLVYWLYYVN
Compound,Efficacy [3] [%],Efficacy [4] [%],Efficacy [5] [%],Efficacy [6] [%],Efficacy [7] [%],Efficacy [8] [%],Efficacy [9] [%],Efficacy [10] [%],Efficacy [11] [%],Efficacy [12] [%],pEC50 [13],pEC50 [14],%max [15] [%],%max [16] [%],"Efficacy [5, 25] [%]","Efficacy [6, 25] [%]",Efficacy [20] [%],Efficacy [21] [%],Efficacy [22] [%],Efficacy [24] [%],also measured
C#Cc1ccc2c3nn(-c4ccc(OC)cc4)c(=O)c-3c[nH]c2c1,9,12,27,39,70,98,163,325,581,732,,,,,,,,,,,pEC50 [1]: 5.30; %max [2]: 946%
COc1ccc(-n2nc3c4ccc(C(F)(F)F)cc4[nH]cc-3c2=O)cc1,13,23,,,83,100,147,216,590,1370,7.89,4.00,49,2970,43,62,851,1,5,1570,Efficacy [17]: 9%; Efficacy [18]: 14%; Efficacy [19]: 18%; Efficacy [23]: 10%
CCc1ccc2c3nn(-c4ccc(OC)cc4)c(=O)c-3c[nH]c2c1,3,4,21,29,54,74,127,216,621,1940,7.64,3.52,57,4980,,,1040,5,5,1510,Efficacy [23]: 7%
COc1ccc(-n2nc3c4ccc(Cl)cc4[nH]cc-3c2=O)cc1,6,13,22,,65,94,180,387,688,703,8.00,4.77,56,796,,40,,,,,
COc1ccc(-n2nc3c4ccc(OC)cc4[nH]cc-3c2=O)cc1,31,,,,125,143,178,234,400,702,8.10,3.93,113,1630,75,105,71,,,446,"Efficacy [4, 25]: 59%"

# Source: ChEMBL document CHEMBL5252552, “Defined concatenated α6α1β3γ2 GABAA receptor constructs reveal dual action of pyrazoloquinolinone allosteric modulators” (Bioorg Med Chem, 2019)
